Laboratory results taken from patent US10526418B2, “Modulators of ACYL-COA lysocardiolipin acyltransferase 1 (ALCAT1) and uses thereof” (priority 2012, dated 2020).

Experiments:
[1] = tested on: MFN1 and MFN2 expression in C2C12 cells; assay: Western blot analysis of MFN1 and MFN2 expression in C2C12 cells stably expressing ALCAT1 or vector control, treated with H2O2; assay type: cell-based
Protocol: FIG. 7G: Western blot analysis of MFN1 and MFN2 expression in C2C12 cells stably expressing vector, ALCAT1, or ALCAT1 but were pretreated various doses (0, 1M, and 5M) of diphenyliodonium (DPI), an NADPH oxidase inhibitor, prior to treatment with 1.5 mM of H2O2.
The C2C12-A1 cells and vector control were treated with increasing doses of H2O2 as used in FIG. 7E, followed by analysis of MFN2 expression by western blot analysis.

[2] = tested on: phosphorylation of Akt and Erk in H9c2 cells; assay: Western blot analysis of phosphorylation of Akt and Erk in H9c2 cardiac cells stimulated with insulin; assay type: cell-based; details: vector control H9c2 cells, indicated doses of insulin, FIG. 17A
Protocol: FIGS. 17A-17B: H9c2 cardiac cells stably expressing ALCAT1 or vector control were stimulated with indicated doses of insulin (FIG. 17A) or with 100 nM of T3 for the indicated time (FIG. 17B), followed by analysis of phosphorylation of Akt, Erk, S6K1, and 4E-BP by western blot analysis using β-actin as an internal control. FIG. 17C: WT and KO mice were treated with vehicle or T4 for 28 days, followed by Western blot analysis of phosphorylation of Akt, GSK3α/β, and 4E-BP in cardiomyocytes by Western blot analysis using GAPDH as an internal control.
Oxidative Stress by ALCAT1 Regulates Akt-mTOR Signal Transduction Pathways in Cardiomyopathy: Hyperthyroidism leads to cardiomyopathy by stimulating protein synthesis in the cardiomyocytes. To identify molecular mechanisms underlying a role of ALCAT1 in hypertrophic growth, the effects of ALCAT1 overexpression and deficiency were analyzed on signal transduction pathways involved in cellular growth and proliferation, including phosphorylation of Akt, Erk, S6K, and 4E-BP1, in H9c2 cells and in mice with hyperthyroidism. Increased ROS levels lead to insulin resistance which plays a causative role in cardiac dysfunction. […] In support of the findings in H9c2 cells, short term treatment of mice with thyroid hormone stimulated cardiac Akt-mTOR phosphorylation in both ALCAT1 knockout mice and the WT mice (FIG. 20).

## OO [H2O2, Hydrogen Peroxide]
[1]; vector control C2C12 cells, increasing doses of H2O2, FIG. 7F
  MFN1 and MFN2 expression: dose-dependently depleted MFN1 and MFN2 expression

## c1ccc2c(c1)[I+]c1ccccc1-2 [DPI, diphenyleneiodonium]
[1]; C2C12-A1 cells (stably expressing ALCAT1) pre-incubated with DPI (0, 1M, and 5M) prior to 1.5 mM H2O2, FIG. 7G
  loss of MFN expression in response to H2O2: dose-dependently prevented the loss of MFN expression

## insulin: hormone used to stimulate Akt and Erk phosphorylation in H9c2 cells
[2]
  phosphorylation of Akt and Erk: dose-dependently stimulated phosphorylation of Akt and Erk
